Laboratory results taken from patent publication US10752587B2, “Homobispiperidinyl derivatives as liver X receptor beta agonists, compositions and their use” (Merck Sharp & Dohme Corp., priority 2015, dated 2020).
Read-outs that look alike come from different tables or passages of the source.

Key:
[1] = target: T1, glutathione-S-transferase (GST) tagged LXRbeta LBD (ligand binding domain) (Homo sapiens, UniProt P55055); assay: LanthaScreen TR-FRET Liver X Receptor Coactivator Assay, co-activator recruitment to LXRbeta LBD; assay type: biochemical
T1 construct: purchased Invitrogen pv4658.pps
T1 sequence (P55055 222-460 limits assumed): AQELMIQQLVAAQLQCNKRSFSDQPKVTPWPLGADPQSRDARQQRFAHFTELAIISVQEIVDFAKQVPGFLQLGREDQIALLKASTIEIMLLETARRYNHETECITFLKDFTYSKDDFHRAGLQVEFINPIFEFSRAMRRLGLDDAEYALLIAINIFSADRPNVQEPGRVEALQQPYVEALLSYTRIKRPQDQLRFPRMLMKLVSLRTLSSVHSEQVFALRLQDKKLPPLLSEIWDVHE
Summary of the method: (§1)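 Readout is time-resolved FRET between a terbium anti-GST antibody bound to the LBD and a fluorescein-tagged coactivator peptide recruited on ligand binding. Plates were incubated at room temperature before reading. Potency (IP) and efficacy (Emax) are referenced to T0901317.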

[2] = target: T2, glutathione-S-transferase (GST) tagged LXRalpha LBD (ligand binding domain) (Homo sapiens, UniProt Q13133); assay: LanthaScreen TR-FRET Liver X Receptor Coactivator Assay, co-activator recruitment to LXRalpha LBD; assay type: biochemical; details: for EC50 / LXR alpha IP (nM): potency (Inflection Point, IP), co-activator recruitment to LXRalpha LBD, in relation to T0901317; for EC50: read-out: LXR alpha IP
T2 construct: purchased Invitrogen pv4655
T2 sequence (Q13133 209-447 limits assumed): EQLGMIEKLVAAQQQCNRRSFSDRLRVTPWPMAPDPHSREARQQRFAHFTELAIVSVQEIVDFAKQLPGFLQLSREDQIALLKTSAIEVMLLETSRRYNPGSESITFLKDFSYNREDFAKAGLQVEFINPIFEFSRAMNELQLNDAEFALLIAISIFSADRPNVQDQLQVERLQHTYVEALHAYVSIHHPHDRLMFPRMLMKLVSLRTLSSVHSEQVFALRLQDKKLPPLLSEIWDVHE
Summary of the method: as §1

[3] = efficacy at max dose, in relation to reference dual agonist T0901317, read-out: LXR beta Activity @ max dose (%)
[4] = potency (Inflection Point, IP), co-activator recruitment to LXRbeta LBD, in relation to T0901317, read-out: LXR beta IP
[5] = efficacy at max dose, in relation to reference dual agonist T0901317, read-out: LXR alpha Activity @ max dose (%)
[6] = efficacy at max dose, in relation to reference dual agonist T0901317

Compound	Emax [1, 3] [%]	EC50 [1, 4] [nM]	Emax [2, 5] [%]	EC50 [2] [nM]	LXR alpha IP (nM) [2]	EC50 ([1]; co-activator recruitment to GST-LXRbeta LBD, TR-FRET, read-out: LXR beta IP (Inflection Point, potency)) [nM]	Emax ([1]; efficacy in relation to reference dual agonist T0901317, read-out: LXR beta Activity @ max dose) [%]	LXR alpha IP (Inflection Point, potency) ([2]; co-activator recruitment to GST-LXRalpha LBD, TR-FRET)	Emax ([2]; efficacy in relation to reference dual agonist T0901317, read-out: LXR alpha Activity @ max dose) [%]	LXR beta Activity @ max dose (%) [1, 6] [%]	LXR alpha Activity @ max dose (%) [2, 6] [%]
CNC(=O)c1ccc(N2CCC(CC3CCN(C(=O)[C@](O)(c4cccc(OC(F)(F)F)c4)C(F)(F)F)CC3)CC2)nc1Cl [Example 7-139, 2-chloro-N-methyl-6-{4-[(1-{(2R)-3,3,3-trifluoro-2-hydroxy-2-[3-(trifluoromethoxy)phenyl]propanoyl}piperidin-4-yl)methyl]piperidin-1-yl}pyridine-3-carboxamide]	91	26	26	223							
O=C(c1ccc(N2CCC(CC3CCN(C(=O)[C@](O)(c4ccccc4)C(F)(F)F)CC3)CC2)cc1Cl)N1CC[C@@H](CO)C1 [Example 4-4, (2R)-3-(4-{[1-(3-chloro-4-{[(3R)-3-(hydroxymethyl)pyrrolidin-1-yl]carbonyl}phenyl)piperidin-4-yl]methyl}piperidin-1-yl)-1,1,1-trifluoro-3-oxo-2-phenylpropan-2-ol]	56	179	24	459							
CN(C)C(=O)c1ccc(N2CCC(OC3CCN(C(=O)N4CC(O)(C(F)(F)F)C4)CC3)CC2)cc1Cl [Example 8-1, 2-chloro-4-(4-((1-(3-hydroxy-3-(trifluoromethyl)azetidine-1-carbonyl)piperidin-4-yl)oxy)piperidin-1-yl)-N,N-dimethylbenzamide]	18	30000	2		NO IP						
CC(C)C(O)(C(=O)N1CCC(CC2CCN(c3ccc(C(=O)N(C)C)c(Cl)n3)CC2)CC1)C(F)(F)F (stereo not shown) [Example 7-59, 2-chloro-6-[4-({1-[2-hydroxy-3-methyl-2-(trifluoromethyl)butanoyl]piperidin-4-yl}methyl)piperidin-1-yl]-N,N-dimethylpyridine-3-carboxamide]	107	293	39	2680							
CCOc1cccc([C@@](O)(C(=O)N2CCC(CC3CCN(c4ccc(C(=O)NC)c(Cl)n4)CC3)CC2)C(F)(F)F)c1 [Example 7-137, 2-chloro-6-[4-({1-[(2R)-2-(3-ethoxyphenyl)-3,3,3-trifluoro-2-hydroxypropanoyl]piperidin-4-yl}methyl)piperidin-1-yl]-N-methylpyridine-3-carboxamide]	82	23	9		NO IP						
CNC(=O)c1ccc(N2CCC(CC3CCN(C(=O)[C@](O)(c4cc(F)cc(OC)c4)C(F)(F)F)CC3)CC2)nc1Cl [Example 7-132, 2-chloro-N-methyl-6-[4-({1-[(2R)-3,3,3-trifluoro-2-(3-fluoro-5-methoxyphenyl)-2-hydroxypropanoyl]piperidin-4-yl}methyl)piperidin-1-yl] pyridine-3-carboxamide]	124	5	22	75							
CNC(=O)c1ccc(N2CCC(CC3CCN(C(=O)[C@](O)(c4cccc(OC(C)C)c4)C(F)(F)F)CC3)CC2)cc1Cl [Example 7-121, 2-chloro-N-methyl-4-{4-[(1-{(2R)-3,3,3-trifluoro-2-hydroxy-2-[3-(1-methylethoxy)phenyl]propanoyl}piperidin-4-yl)methyl]piperidin-1-yl}benzamide]	69	21	11		NO IP						
CN(C)C(=O)c1ccc(N2CCC(CC3CCN(C(=O)C(C)(C)c4ccccc4)CC3)CC2)nc1Cl [Example 7-61, 2-chloro-N,N-dimethyl-6-(4-{[1-(2-methyl-2-phenylpropanoyl)piperidin-4-yl]methyl}piperidin-1-yl)pyridine-3-carboxamide]	68	45	21	817							
COc1cccc([C@@](O)(C(=O)N2CCC(SC3CCN(c4ccc(C(=O)N(C)C)c(Cl)n4)CC3)CC2)C(F)(F)F)c1 [Example 9-2, 2-chloro-N,N-dimethyl-6-[4-({1-[(2R)-3,3,3-trifluoro-2-hydroxy-2-(3-methoxyphenyl)-propanoyl]piperidin-4-yl}sulfanyl)-piperidin-1-yl]-pyridine-3-carboxamide]	70	14	7		NO IP						
COc1cccc([C@@](O)(C(=O)N2CC(CC3CCN(c4ccc(C(=O)N(C)C)c(Cl)c4)CC3)C2)C(F)F)c1 [Example 2-70, 2-chloro-4-[4-({1-[(2R)-3,3-difluoro-2-hydroxy-2-(3-methoxy-phenyl)propanoyl]azetidin-3-yl}methyl)piperidin-1-yl]-N,N-dimethyl-benzamide]	48	92	2		NO IP						
COc1cccc([C@@](O)(C(=O)N2CCC(CC3CCN(c4cnc(C(=O)N(C)C)c(C)c4)CC3)CC2)C(F)(F)F)c1 [Example 2-2, N,N,3-trimethyl-5-[4-({1-[(2R)-3,3,3-trifluoro-2-hydroxy-2-(3-methoxy-phenyl)propanoyl]piperidin-4-yl}methyl)piperidin-1-yl]pyridine-2-carboxamide]	43	155	5		NO IP						

Next, values leading:

Emax [1, 3] [%]	EC50 [1, 4] [nM]	Emax [2, 5] [%]	EC50 [2] [nM]	LXR alpha IP (nM) [2]	EC50 ([1]; co-activator recruitment to GST-LXRbeta LBD, TR-FRET, read-out: LXR beta IP (Inflection Point, potency)) [nM]	Emax ([1]; efficacy in relation to reference dual agonist T0901317, read-out: LXR beta Activity @ max dose) [%]	LXR alpha IP (Inflection Point, potency) ([2]; co-activator recruitment to GST-LXRalpha LBD, TR-FRET)	Emax ([2]; efficacy in relation to reference dual agonist T0901317, read-out: LXR alpha Activity @ max dose) [%]	LXR beta Activity @ max dose (%) [1, 6] [%]	LXR alpha Activity @ max dose (%) [2, 6] [%]	Compound
69	17	31	195								COCCN(C)C(=O)c1ccc(N2CCC(CC3CCN(C(=O)[C@](O)(c4ccccc4)C(F)(F)F)CC3)CC2)cc1Cl [Example 4-9]
96	3	45	65								CN(C)C(=O)c1ccc(N2CCC(CC3CCN(C(=O)[C@](O)(c4cc(F)cc(Cl)c4)C(F)(F)F)CC3)CC2)nc1Cl [Example 7-112, 2-chloro-6-[4-({1-[(2R)-2-(3-chloro-5-fluorophenyl)-3,3,3-trifluoro-2-hydroxypropanoyl]piperidin-4-yl}methyl)piperidin-1-yl]-N,N-dimethylpyridine-3-carboxamide]
62	18	3		NO IP							COc1cccc([C@@](O)(C(=O)N2CC(CC3CCN(c4ccc(C(=O)N(C)C)c(Cl)c4)CC3)C2)C(F)(F)F)c1 [Example 2-59, 2-chloro-N,N-dimethyl-4-[4-({1-[(2R)-3,3,3-trifluoro-2-hydroxy-2-(3-methoxyphenyl)propanoyl]azetidin-3-yl}methyl)piperidin-1-yl]benzamide]
63	136	22	844								CN(C)C(=O)c1ccc(N2CCC(CC3CCN(C(=O)OC(C)(C)C)CC3)CC2)cc1Cl [Example 1-1, tert-butyl 4-((1-(3-chloro-4-(dimethylcarbamoyl)phenyl)piperidin-4-yl)methyl)piperidine-1-carboxylate]
					171	32	NO IP	0			CN(C)C(=O)c1ccc(N2CCC(CC3CCN(S(=O)(=O)c4cc(F)cc(C(F)(F)F)c4)CC3)CC2)cc1Cl [Example 13-15, 2-chloro-4-{4-[(1-{[3-fluoro-5-(trifluoro-methyl)phenyl]-sulfonyl}piperidin-4-yl)methyl]piperidin-1-yl}-N,N-dimethylbenzamide]
	33			NO IP					64	10	CN(C)C(=O)c1ccc(N2CCC(CC3CCN(C(=O)[C@](O)(c4cccc(Cl)c4)C(F)(F)F)CC3)CC2)cc1 [Example 2-146, 4-[4-({1-[(2R)-2-(3-chloro-phenyl)-3,3,3-trifluoro-2-hydroxy-propanoyl]piperidin-4-yl}methyl)piperidin-1-yl]-N,N-dimethyl-benzamide]
91	3	50	88								CN(C)C(=O)c1ccc(N2CCC(CC3CCN(C(=O)[C@](O)(c4cccc(F)c4)C(F)(F)F)CC3)CC2)nc1Cl [Example 7-72, 2-chloro-N,N-dimethyl-6-[4-({1-[(2R)-3,3,3-trifluoro-2-(3-fluorophenyl)-2-hydroxypropanoyl]piperidin-4-yl}methyl)piperidin-1-yl]pyridine-3-carboxamide]
46	16	6		NO IP							CN(C)C(=O)c1ccc(N2CCC(CC3CCN(C(=O)[C@](O)(c4cccc(CC#N)c4)C(F)(F)F)CC3)CC2)cc1Cl [Example 2-120, 2-chloro-4-{4-[(1-{(2R)-2-[3-(cyanomethyl)phenyl]-3,3,3-trifluoro-2-hydroxy-propanoyl}piperidin-4-yl)methyl]piperidin-1-yl}-N,N-dimethyl-benzamide]
